Values belong to the compound of their own block, whether it stands above or below them.
Target: T1, human APJ receptor (Homo sapiens, UniProt P35414)
T1 construct: expressed in transfected cells; host or cells: HEK293
T1 sequence (P35414 1-380): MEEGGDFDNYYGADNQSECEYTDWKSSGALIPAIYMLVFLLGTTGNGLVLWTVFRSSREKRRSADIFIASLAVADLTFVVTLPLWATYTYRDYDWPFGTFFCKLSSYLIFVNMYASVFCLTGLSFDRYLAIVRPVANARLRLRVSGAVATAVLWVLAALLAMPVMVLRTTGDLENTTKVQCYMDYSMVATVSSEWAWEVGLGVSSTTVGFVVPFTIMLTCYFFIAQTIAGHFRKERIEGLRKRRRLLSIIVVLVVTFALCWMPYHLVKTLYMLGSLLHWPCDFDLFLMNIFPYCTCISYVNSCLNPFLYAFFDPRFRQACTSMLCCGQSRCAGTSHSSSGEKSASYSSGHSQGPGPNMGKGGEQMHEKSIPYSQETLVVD
Assay: Intracellular cAMP accumulation assay (APJ hcAMP, HTRF)
Assay type: cell-based
Settings: HEK293 cells stably expressing human APJ receptor; inhibition of forskolin-mediated cAMP production; Table 1; read-out: hAPJ cAMP EC50 Potency range
How it was run: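 Inhibition of forskolin (2 μM)-driven cAMP, with […], measured by HTRF after 30 min room-temperature compound exposure of stably transfected HEK293 cells. cAMP read from a standard curve; variable-slope fit gives EC50, and maximal inhibition is normalised to (Pyr1)apelin-13 as 100%.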

Structure (SMILES): CCN(c1ccccc1)c1c(CC2CC2)nc(O)c(S(=O)(=O)c2ccc(-c3ccccc3C(N)=O)cc2)c1O [Example 147, 4′-((6-(cyclopropylmethyl)-5-(ethyl(phenyl)amino)-2,4-dihydroxypyridin-3-yl)sulfonyl)-[1,1′-biphenyl]-2-carboxamide]
- EC50: 0.01 to 10 nM

Structure (SMILES): CCN(c1ccccc1)c1c(-c2cnn(C)c2)nc(O)c(S(=O)(=O)c2ccc(-c3ccnc(F)c3C)cc2)c1O [Example 149, 5-(ethyl(phenyl)amino)-3-((4-(2-fluoro-3-methylpyridin-4-yl)phenyl)sulfonyl)-6-(1-methyl-1H-pyrazol-4-yl)pyridine-2,4-diol]
- EC50: 0.01 to 10 nM

Structure (SMILES): CCN(c1ccccc1)c1c(-c2cnn(C)c2)nc(O)c(S(=O)(=O)c2ccc(-c3ccccc3C(=O)NC)cc2)c1O [Example 151, 4′-((5-(ethyl(phenyl)amino)-2,4-dihydroxy-6-(1-methyl-1H-pyrazol-4-yl)pyridin-3-yl)sulfonyl)-N-methyl-[1,1′-biphenyl]-2-carboxamide]
- EC50: 0.01 to 10 nM

Structure (SMILES): CCN(c1ccccc1)c1c(-c2cnn(C)c2)nc(O)c(S(=O)(=O)c2ccc(-c3ccc(F)nc3C)cc2)c1O [Example 152, 5-(ethyl(phenyl)amino)-3-((4-(6-fluoro-2-methylpyridin-3-yl)phenyl)sulfonyl)-6-(1-methyl-1H-pyrazol-4-yl)pyridine-2,4-diol]
- EC50: 0.01 to 10 nM

Structure (SMILES): CCN(c1ccccc1)c1c(-c2cnn(C)c2)nc(O)c(S(=O)(=O)c2ccc(-c3ccccc3C(=O)NC3CC3)cc2)c1O [Example 153, N-cyclopropyl-4′-((5-(ethyl(phenyl)amino)-2,4-dihydroxy-6-(1-methyl-1H-pyrazol-4-yl)pyridin-3-yl)sulfonyl)-[1,1′-biphenyl]-2-carboxamide]
- EC50: 0.01 to 10 nM

Structure (SMILES): CCN(c1ccccc1)c1c(-c2cnn(C)c2)nc(O)c(S(=O)(=O)c2ccc(-c3ccccc3C(=O)N(C)C)cc2)c1O [Example 154, 4′-((5-(ethyl(phenyl)amino)-2,4-dihydroxy-6-(1-methyl-1H-pyrazol-4-yl)pyridin-3-yl)sulfonyl)-N,N-dimethyl-[1,1′-biphenyl]-2-carboxamide]
- EC50: 0.01 to 10 nM

Structure (SMILES): CCN(c1ccccc1)c1c(-c2cnn(C)c2)nc(O)c(S(=O)(=O)c2ccc(-c3ccc(F)cc3C(N)=O)cc2)c1O [Example 155, 4′-((5-(ethyl(phenyl)amino)-2,4-dihydroxy-6-(1-methyl-1H-pyrazol-4-yl)pyridin-3-yl)sulfonyl)-4-fluoro-[1,1′-biphenyl]-2-carboxamide]
- EC50: 0.01 to 10 nM

Structure (SMILES): CCN(c1ccccc1)c1c(-c2cnn(C)c2)nc(O)c(S(=O)(=O)c2ccc(-c3ccncc3C)cc2)c1O [Example 156, 5-(ethyl(phenyl)amino)-6-(1-methyl-1H-pyraozl-4-yl)-3-((4-(3-methylpyridin-4-yl)phenyl)sulfonyl)pyri-dine-2,4-diol]
- EC50: 0.01 to 10 nM

Structure (SMILES): Cc1c(-c2ccc(S(=O)(=O)c3c(O)nc(-c4ccn(C)n4)c(N4CC(C)(C)c5ccccc54)c3O)cc2)ccnc1F [Example 160, 5-(3,3-dimethylindolin-1-yl)-3-((4-(2-fluoro-3-methylpyridin-4-yl)phenyl)sulfonyl)-6-(1-methyl-1H-pyrazol-3-yl)pyridine-2,4-diol]
- EC50: 10 to 100 nM

Structure (SMILES): CCCCc1nc(O)c(S(=O)(=O)c2ccc(-c3ccccc3C(N)=O)cc2)c(O)c1N1CCCOc2ccccc21 [Example 168, 4′-((6-butyl-5-(3,4-dihydrobenzo[b][1,4]ox-azepin-5(2H)-yl)-2,4-dihydroxypyridin-3-yl)sulfonyl)-[1,1′-biphenyl]-2-carboxamide]
- EC50: 0.01 to 10 nM

Structure (SMILES): CCCCc1nc(O)c(S(=O)(=O)c2ccc(-c3ccncc3C)cc2)c(O)c1N1CCCCc2ccccc21 [Example 169, 6-butyl-3-((4-(3-methylpyridin-4-yl)phenyl)sulfonyl)-5-(2,3,4,5-tetrahydro-1H-benzo[b]azepin-1-yl)pyridine-2,4-diol]
- EC50: 10 to 100 nM

Structure (SMILES): CCCCc1nc(O)c(S(=O)(=O)c2ccc(-c3ccncc3C)cc2)c(O)c1N(CC)c1cccc(C#N)c1 [Example 170, 3-((2-butyl-4,6-dihydroxy-5-((4-(3-methylpyridin-4-yl)phenyl)sulfonyl)pyri-din-3-yl)(ethyl)amino)benzonitrile]
- EC50: 0.01 to 10 nM

Structure (SMILES): CCCCc1nc(O)c(S(=O)(=O)c2ccc(-c3ccccc3C(=O)N(C)C)cc2)c(O)c1N(C)c1ccccc1F [Example 171, 4′-((6-butyl-5-((2-fluorophenyl)(methyl)a-mino)-2,4-dihydroxypyridin-3-yl)sulfonyl)-N,N-dimethyl-[1,1′-biphenyl]-2-carboxamide]
- EC50: 0.01 to 10 nM

Structure (SMILES): CCCCc1nc(O)c(S(=O)(=O)c2ccc(-c3ccnc(F)c3C)cc2)c(O)c1N(CC)c1cccc(C#N)c1 [Example 172, 3-((2-butyl-5-((4-(2-fluoro-3-methylpyridin-4-yl)phenyl)sulfonyl)-4,6-dihydroxypyridin-3-yl)(ethyl)amino)benzonitrile]
- EC50: 0.01 to 10 nM

Structure (SMILES): CCCCc1nc(O)c(S(=O)(=O)c2ccc(-c3cccnc3C)cc2)c(O)c1N1CCCCc2ccccc21 [Example 173, 6-butyl-3-((4-(2-methylpyridin-3-yl)phenyl)sulfonyl)-5-(2,3,4,5-tetrahydro-1H-benzo[b]azepin-1-yl)pyridine-2,4-diol]
- EC50: 10 to 100 nM

Structure (SMILES): CCCCc1nc(O)c(S(=O)(=O)c2ccc(-c3ccccc3C(N)=O)cc2)c(O)c1N(C)c1ccccc1F [Example 174, 4′-((6-butyl-5-((2-fluorophenyl)(methyl)a-mino)-2,4-dihydroxypyridin-3-yl)sulfonyl)-[1,1′-biphenyl]-2-carboxamide]
- EC50: 0.01 to 10 nM

The remaining lines, values ahead:

- EC50: 0.01 to 10 nM
Structure (SMILES): CCN(c1ccccc1)c1c(-c2ccn(C)n2)nc(O)c(S(=O)(=O)c2ccc(-c3ccccc3C(N)=O)cc2)c1O [Example 148, 4′-((5-(ethyl(phenyl)amino)-2,4-dihydroxy-6-(1-methyl-1H-pyrazol-3-yl)pyridin-3-yl)sulfonyl)-[1,1′-biphenyl]-2-carboxamide]

- EC50: 0.01 to 10 nM
Structure (SMILES): CCN(c1ccccc1)c1c(-c2cnn(C)c2)nc(O)c(S(=O)(=O)c2ccc(-c3cccnc3C)cc2)c1O [Example 150, 5-(ethyl(phenyl)amino)-6-(1-methyl-1H-pyrazol-4-yl)-3-((4-(2-methylpyridin-3-yl)phenyl)sulfonyl)pyri-dine-2,4-diol]

- EC50: 0.01 to 10 nM
Structure (SMILES): Cc1nc(F)ccc1-c1ccc(S(=O)(=O)c2c(O)nc(-c3ccn(C)n3)c(N(c3ccccc3)C(C)C)c2O)cc1 [Example 157, 3-((4-(6-fluoro-2-methylpyridin-3-yl)phenyl)sulfonyl)-5-(isopropyl(phen-yl)amino)-6-(1-methyl-1H-pyrazol-3-yl)pyridine-2,4-diol]

- EC50: 0.01 to 10 nM
Structure (SMILES): CNC(=O)c1ccccc1-c1ccc(S(=O)(=O)c2c(O)nc(-c3ccn(C)n3)c(N(c3ccccc3)C(C)C)c2O)cc1 [Example 158, 4′-((2,4-dihydroxy-5-(isopropyl(phen-yl)amino)-6-(1-methyl-1H-pyrazol-3-yl)pyridin-3-yl)sulfonyl)-N-methyl-[1,1′-biphenyl]-2-carboxamide]

- EC50: 0.01 to 10 nM
Structure (SMILES): CC(C)N(c1ccccc1)c1c(-c2ccn(C)n2)nc(O)c(S(=O)(=O)c2ccc(-c3ccccc3C(=O)N(C)C)cc2)c1O [Example 159, 4′-((2,4-dihydroxy-5-(isopropyl(phen-yl)amino)-6-(1-methyl-1H-pyrazol-3-yl)pyridin-3-yl)sulfonyl)-N,N-dimethyl-[1,1′-biphenyl]-2-carboxamide]

- EC50: 0.01 to 10 nM
Structure (SMILES): CC(C)N(c1ccccc1)c1c(-c2ccn(C)n2)nc(O)c(S(=O)(=O)c2ccc(-c3ccc(F)cc3C(N)=O)cc2)c1O [Example 161, 4′-((2,4-dihydroxy-5-(isopropyl(phenyl)amino)-6-(1-methyl-1H-pyrazol-3-yl)pyridin-3-yl)sulfonyl)-4-fluoro-[1,1′-biphenyl]-2-carboxamide]

- EC50: 0.01 to 10 nM
Structure (SMILES): CC(C)N(c1ccccc1)c1c(-c2ccn(C)n2)nc(O)c(S(=O)(=O)c2ccc(-c3ccccc3C(=O)NC3CC3)cc2)c1O [Example 162, N-cyclopropyl-4′-((2,4-dihydroxy-5-(isopropyl(phen-yl)amino)-6-(1-methyl-1H-pyrazol-3-yl)pyridin-3-y)sulfonyl)-[1,1′-biphenyl]-2-carboxamide]

- EC50: 0.01 to 10 nM
Structure (SMILES): CNC(=O)c1cccc(-c2ccc(S(=O)(=O)c3c(O)nc(-c4ccn(C)n4)c(N(c4ccccc4)C(C)C)c3O)cc2)c1 [Example 163, 4′-((2,4-dihydroxy-5-(isopropyl(phen-yl)amino)-6-(1-methyl-1H-pyrazol-3-yl)pyridin-3-yl)sulfonyl)-N-methyl-[1,1′-biphenyl]-3-carboxamide]

- EC50: 0.01 to 10 nM
Structure (SMILES): Cc1c(-c2ccc(S(=O)(=O)c3c(O)nc(-c4ccn(C)n4)c(N(c4ccccc4)C(C)C)c3O)cc2)ccnc1F [Example 164, 3-((4-(2-fluoro-3-methylpyridin-4-yl)phenyl)sulfonyl)-5-(isopropyl(phen-yl)amino)-6-(1-methyl-1H-pyrazol-3-yl)pyridine-2,4-diol]

- EC50: 0.01 to 10 nM
Structure (SMILES): Cc1ncccc1-c1ccc(S(=O)(=O)c2c(O)nc(-c3ccn(C)n3)c(N(c3ccccc3)C(C)C)c2O)cc1 [Example 165, 5-(iso-propyl(phenyl)amino)-6-(1-methyl-1H-pyrazol-3-yl)-3-((4-(2-methylpyridin-3-yl)phenyl)sulfonyl)pyri-dine-2,4-diol]

- EC50: 0.01 to 10 nM
Structure (SMILES): CC(C)N(c1ccccc1)c1c(-c2ccn(C)n2)nc(O)c(S(=O)(=O)c2ccc(-c3ccccc3C(N)=O)cc2)c1O [Example 166, 4′-((2,4-dihydroxy-5-(isopropyl(phen-yl)amino)-6-(1-methyl-1H-pyrazol-3-yl)pyridin-3-yl)sulfonyl)-[1,1′-biphenyl]-2-carboxamide]
